US10716770B2, “Nicotinic receptor non-competitive antagonists” (Catalyst Biosciences, Inc., priority 2010, dated 2020)
Read-outs that look alike come from different tables or passages of the source.

Columns and labels:
Human Ganglion = molecular target: T1, Human Ganglion (Homo sapiens, UniProt P30926+P32297); assay: Calcium flux functional assay, inhibition of nicotine response at human ganglionic receptor subtype; assay type: cell-based; conditions: read-out: Human Ganglion Ca Flux Imax
T1 construct: Human Ganglion Ca Flux IC50; Human Ganglion Ca Flux Imax
Protocol: (§1) SH-EP1-human α4β2 (Eaton et al., 2003), SH-EP1-human α4β4 (Gentry et al., 2003) and SH-EP1-α6β3β4α5 (Grinevich at al., 2005) cell lines were obtained from Dr. Ron Lukas (Barrow Neurological Institute). The SH-EP1 cell lines, PC12, SH-SY5Y and TE671/RD cells were maintained in proliferative growth phase in Dulbecco's modified Eagle's medium (Invitrogen, Carlsbad, Calif.) with 10% horse serum (Invitrogen), 5% fetal bovine serum (HyClone, Logan Utah), 1 mM sodium pyruvate, 4 mM L-glutamine. For maintenance of stable transfectants, the α4β2 and α4β4 cell media was supplemented with 0.25 mg/mL zeocin and 0.13 mg/mL hygromycin B. Selection was maintained for the α6β3β4α5 cells with 0.25 mg/mL of zeocin, 0.13 mg/mL of hygromycin B, 0.4 mg/mL of geneticin, and 0.2 mg/mL of blasticidin.
(§2) Twenty-four to forty-eight hours prior to each experiment, cells were plated in 96 well black-walled, clear bottom plates (Corning, Corning, N.Y.) at 60-100,000 cells/well. On the day of the experiment, growth medium was gently removed, 200 μL 1×FLIPR Calcium 4 Assay reagent (Molecular Devices, Sunnyvale, Calif.) in assay buffer (20 mM HEPES, 7 mM TRIS base, 4 mM CaCl2, 5 mM D-glucose, 0.8 mM MgSO4, 5 mM KCl, 0.8 mM MgCl2, 120 mM N-methyl D-glucamine, 20 mM NaCl, pH 7.4 for SH-EP1-human α4β2 cells or 10 mM HEPES, 2.5 mM CaCl2, 5.6 mM D-glucose, 0.8 mM MgSO4, 5.3 mM KCl, 138 mM NaCl, pH 7.4 with TRIS-base for all other cell lines) was added to each well and plates were incubated at 37° C. for 1 hour (29° C. for the 29° C.-treated SH-EP1-human α4β2 cells). For inhibition studies, competitor compound (10 pM-10 μM) was added at the time of dye addition. The plates were removed from the incubator and allowed to equilibrate to room temperature. Plates were transferred to a FLIPR Tetra fluorometric imaging plate reader (Molecular Devices) for addition of compound and monitoring of fluorescence (excitation 485 nm, emission 525 nm). The amount of calcium flux was compared to both a positive (nicotine) and negative control (buffer alone). The positive control was defined as 100% response and the results of the test compounds were expressed as a percentage of the positive control. For inhibition studies, the agonist nicotine was used at concentrations of 1 μM for SH-EP1-human α4β2 and SH-EP1-human α4β4 cells, 10 μM for PC12 and SH-SY5Y cells, and 100 μM for TE671/RD cells.

human α4β2 [1] = molecular target: T2, human α4β2 (Homo sapiens, UniProt P17787+P43681); assay: Calcium flux functional assay, inhibition of nicotine response in SH-EP1-human α4β2 cells; assay type: cell-based; conditions: nicotine 1 μM
T2 construct: host or cells: SH-EP1
Protocol: as §1, §2

human α4β2 [2] = molecular target: T2, human α4β2; assay: Competition binding to human α4β2 nicotinic receptors in membrane preparations ([3H]-nicotine); conditions: [3H]-nicotine competition, membranes
[3] = 29C/HS (29° C.-treated SH-EP1-human α4β2 cells), read-out: Human α4β2 Ca Flux IC50 [29C/HS]
[4] = 29C/HS (29° C.-treated SH-EP1-human α4β2 cells), read-out: Human α4β2 Ca Flux Imax [29C/HS]
[5] = 37C/LS, read-out: Human α4β2 Ca Flux IC50 [37C/LS]
[6] = 37C/LS, read-out: Human α4β2 Ca Flux Imax [37C/LS]
[7] = 29C/HS (29° C.-treated SH-EP1-human α4β2 cells)

SMILES | Emax (Human Ganglion) | IC50 (human α4β2 [1]; [3]) | Emax (human α4β2 [1]; [4]) | IC50 (human α4β2 [1]; [5]) | Emax (human α4β2 [1]; [6]) | Ki (human α4β2 [2]; read-out: Human α4β2 Ki) | Ki (human α4β2 [2]; Human α4β2 Ki) | IC50 (human α4β2 [1]; Human α4β2 Ca Flux IC50 [37C/LS], 37C/LS) | Human α4β2 Ca Flux Imax [29C/HS] (human α4β2 [1]; [7]) | Human α4β2 Ca Flux Imax [37C/LS] (human α4β2 [1]; 37C/LS)
CNC1C2(CCC2)[C@H]2CC[C@]1(C)C2(C)C (stereo partly drawn) [drawing 31] | 97% | 1300 nM | 99% | 498 nM | 96% | > 10000 nM | – | – | – | –
CN(C)C1C2(CCC2)[C@H]2CC[C@]1(C)C2(C)C (stereo partly drawn) [drawing 35] | 98% | 540 nM | 96% | 520 nM | 97% | > 10000 nM | – | – | – | –
CN(C)C1C2CCC(C2)C12CCC2 (stereo not drawn) | 98% | 1800 nM | 98% | 620 nM | 98% | 2600 nM | – | – | – | –
CNC1C2CCC(C2)C12CCC2 (stereo not drawn) | 97% | 1000 nM | 99% | 500 nM | 97% | – | > 10000 nM | – | – | –
CN[C@@]1(C)[C@@H]2CC[C@@H](C2)C12CCC2 (racemic) | 93% | – | 98% | – | 95% | 8700 nM | – | – | – | –
CNC1C2(CCC2)[C@@H]2CC[C@@]1(C)C2(C)C (stereo partly drawn) [drawing 33] | 95% | 1000 nM | 97% | 600 nM | 95% | > 10000 nM | – | – | – | –
C1CCN(C2C3CCC(C3)C23CCC3)C1 (stereo not drawn) | 79% | 1400 nM | 90% | – | 96% | 3800 nM | – | 59 nM | – | –
C1CN(C2C3CCC(C3)C23CCC3)C1 (stereo not drawn) | 89% | 1400 nM | 96% | 740 nM | 98% | – | – | – | – | –
CN[C@@]1(C)[C@@H]2CC[C@@H](C2)C12CCC2 (single isomer, unassigned) [drawing 30] | – | – | – | – | – | > 10000 nM | – | – | 98 % inh | 94 % inh
CN(C)C1C2(CCC2)[C@@H]2CC[C@@]1(C)C2(C)C (stereo partly drawn) [drawing 38] | – | 740 nM | – | 380 nM | – | 2600 nM | – | – | 95 % inh | 95 % inh
CNC1(C)C2CCC(C2)C12CCCC2 (stereo not drawn) | 96% | 1100 nM | 99% | 120 nM | 100% | > 10000 nM | – | – | – | –
CN[C@@]1(C)[C@@H]2CC[C@@H](C2)C12CCC2 (single isomer, unassigned) [drawing 29] | – | – | – | – | – | > 10000 nM | – | – | 98 % inh | 96 % inh
CNC1C2(CCC2)[C@H]2CC[C@]1(C)C2(C)C (stereo partly drawn) [drawing 32] | – | 710 nM | – | 430 nM | – | 5600 nM | – | – | 98 % inh | 96 % inh
CNC1(C)C2CCC(C2)C12CC2 (stereo not drawn) | 98% | 380 nM | 97% | 120 nM | 93% | > 10000 nM | – | – | – | –
CN(C)C1C2(CCC2)[C@@H]2CC[C@@]1(C)C2(C)C (stereo partly drawn) [drawing 37] | 95% | 1100 nM | 96% | 280 nM | 95% | 3200 nM | – | – | – | –
CN(C)C1C2(CCC2)[C@H]2CC[C@]1(C)C2(C)C (stereo partly drawn) [drawing 36] | – | 140 nM | – | 350 nM | – | > 10000 nM | – | – | 96 % inh | 95 % inh
CNC1(C)C2CCC(CC2)C12CCCC2 (stereo not drawn) | 92% | – | – | 400 nM | 95% | 300 nM | – | – | – | –
CNC1C2CCC(C2)C12CC2 (stereo not drawn) | 93% | 2100 nM | 97% | 570 nM | 93% | – | 540 nM | – | – | –
CNC1C2(CCC2)[C@@H]2CC[C@@]1(C)C2(C)C (stereo partly drawn) [drawing 34] | – | 310 nM | – | 270 nM | – | > 10000 nM | – | – | 97 % inh | 93 % inh
